Results taken from patent US20100138935A1, “Detection of cellular stress” (priority 2004, published 2010).

Key:
HOZ mice [1] = test: Histopathology (H&E) of HOZ mouse liver and kidney; assay type: in vivo; conditions: 10 mg/kg i.p. in saline, 24 hours
Description: Two further slices (˜2 mm thickness) were placed in 10% neutral buffered formalin (10% NBF) overnight then processed, sectioned and stained with haematoxylin and eosin (H&E).
Initially, one HOZ mouse was given 10 mg/kg body weight cadmium chloride i.p. One control animal received the vehicle solution, isotonic saline, i.p. and an untreated animal was used as a second control. The animals were killed 24 hours after dosing and liver, kidney and brain were collected for H&E staining and lacZ histology.
Sections of HOZ mouse liver and kidney were prepared and stained according to standard procedures (H&E). (a, b) Naive control; (c, d) Saline treated; (e, f) Cadmium chloride treated (10 mg/kg i.p. in saline). All images in FIG. 5 are of H&E stained sections: (a, c and e) are of liver; b, d and f are of kidney (original magnification ×100).

HOZ mice [2] = test: BUN as a marker of nephrotoxicity in HOZ mice; assay type: in vivo, mouse; parameters: BUN: unit not given here
Description: (§1) Terminal blood samples were taken by cardiac puncture into lithium/heparin-coated tubes for preparation of plasma. Tissues, as defined in each protocol, were routinely dissected as follows:
(§2) Following removal into tubes suitable for plasma preparation, venous blood samples were mixed on a roller for 10 minutes then cooled on ice. Red blood cells were removed by centrifugation at 2,000 rpm for 10 minutes at 8-10° C. The supernatant (plasma) was transferred to a second tube and stored at −70° C. until required for analysis.
(§3) Plasma samples were analysed for appropriate analytes on a Roche autoanalyser (Cobas Integra 400) according to the manufacturer's instructions. The routine markers measured included: (for liver damage) plasma alanine aminotransferase (ALT), aspartate aminotransferase (AST) and alkaline phosphatase (ALP) and (for kidney damage) plasma creatinine and blood urea nitrogen (BUN).
The increase in BUN was 6-fold at 8 hours and 44-fold after 24 hours.

HOZ mice [3] = test: Plasma AST as a marker of hepatotoxicity in HOZ mice; assay type: in vivo, mouse
Description: as §1, §2, §3
Two plasma enzyme markers, ALT and AST, were used as markers of hepatotoxicity in HOZ mice treated with cadmium chloride or sodium arsenite. […]

HO-1 mRNA = test: RT-PCR assay of endogenous HO-1 mRNA in HOZ mouse tissue; assay type: in vivo
Description: Analysis of the expression of endogenous genes was carried out by RT-PCR using the ABI Prism 7000 system. For RT-PCR analysis, frozen tissue samples were homogenised using a Polytron PT-mr2100 homogeniser in 1 ml TRI reagent (Sigma). Total RNA for each sample was isolated according to the manufacturer's instructions and RNA pellets stored at −70° C. under 75% ethanol. Each of the RNA pellets was resuspended in RNAase/DNAase free dH2O and quantified using a Genequant RNA/DNA calculator (Amersham). First strand cDNA synthesis was performed for each sample using 2 μg of total RNA and the Protoscript First Strand cDNA Synthesis Kit (New England Biolabs) according to the manufacturer's protocol. Additional steps to degrade RNA following cDNA synthesis were performed. Each sample was diluted to 50 μl with RNAase/DNAase-free dH2O and stored at −20° C.
In order to measure variation in p21 or Haemoxygenase-1 (HO-1) expression it was necessary to include an internal control. Amplification of β-Actin cDNA provides a standard to control for variations on RNA content between samples. The final reactions therefore consisted of two separate reactions (target gene and β-Actin cDNA amplification) performed simultaneously in a single tube. The PCR conditions used were 10 minutes at 95° C. followed by 40 cycles of denaturing for 15 seconds at 95° C. and annealing/extending for 1 minute at 60° C. The primers and probe for the p21 and HO-1 amplification reactions were obtained from ABI (Assay-On-Demand kit). These methods have been pre-validated for the standard conditions used on the ABI Prism 7000 system.
The effects of cadmium chloride on endogenous HO-1 expression were determined by RT-PCR assay of HO-1 mRNA levels in liver and kidney tissue from HOZ mice. […] The bars show relative concentrations of HO-1 mRNA assayed by RT-PCR in brain, kidney and liver tissue of mice that had received 10 mg/kg cadmium chloride 24 hours earlier compared with mice that had received saline and untreated mice. […]

[4] = female, 8 mg/kg, after 24 hours

[Cl][Cd][Cl] [Cadmium Chloride, cadmium chloride]
kidney histology (H&E) (HOZ mice [1]): occasional necrotic proximal convoluted tubules (PCTs)
liver histology (H&E) (HOZ mice [1]): acute toxicity manifesting as hepatocyte vacuolation and areas of necrosis associated with deposits of erythrocytes
BUN (HOZ mice [2]; female, 1 mg/kg, 8 hours): 5.10
BUN (HOZ mice [2]; female, 1 mg/kg, 24 hours): 4.36
BUN (HOZ mice [2]; female, 2 mg/kg, 8 hours): 3.33
BUN (HOZ mice [2]; female, 2 mg/kg, 24 hours): 2.85
BUN (HOZ mice [2]; female, 4 mg/kg, 8 hours): 4.77
BUN (HOZ mice [2]; female, 4 mg/kg, 24 hours): 3.66
nephrotoxicity as measured by BUN (HOZ mice [2]; female, 8 mg/kg): mild nephrotoxicity
BUN (HOZ mice [2]; female, 8 mg/kg, 8 hours): 22.86
BUN (HOZ mice [2]; female, 8 mg/kg, 24 hours): 98.16
increase in BUN (HOZ mice [2]; [4]): 44 fold
increase in BUN (HOZ mice [2]; female, 8 mg/kg, at 8 hours): 6 fold
nephrotoxicity as measured by BUN (HOZ mice [2]; male mice): No nephrotoxicity
BUN (HOZ mice [2]; male, 1 mg/kg, 8 hours): 4.54
BUN (HOZ mice [2]; male, 1 mg/kg, 24 hours): 5.27
BUN (HOZ mice [2]; male, 2 mg/kg, 8 hours): 4.24
BUN (HOZ mice [2]; male, 2 mg/kg, 24 hours): 5.10
BUN (HOZ mice [2]; male, 4 mg/kg, 8 hours): 3.87
BUN (HOZ mice [2]; male, 4 mg/kg, 24 hours): 4.11
BUN (HOZ mice [2]; male, 8 mg/kg, 8 hours): 3.84
BUN (HOZ mice [2]; male, 8 mg/kg, 24 hours): 4.85
AST (HOZ mice [3]; HOZ mouse, 10 mg/kg i.p., 24 hours): 4643.1 U/L
Plasma AST (HOZ mice [3]; female, 1 mg/kg, 8 hours): 87.6 u/L
Plasma AST (HOZ mice [3]; female, 1 mg/kg, 24 hours): 87.5 u/L
Plasma AST (HOZ mice [3]; female, 2 mg/kg, 8 hours): 80.4 u/L
Plasma AST (HOZ mice [3]; female, 2 mg/kg, 24 hours): 104.7 u/L
Plasma AST (HOZ mice [3]; female, 4 mg/kg, 8 hours): 108.5 u/L
Plasma AST (HOZ mice [3]; female, 4 mg/kg, 24 hours): 89.1 u/L
increase in plasma AST (HOZ mice [3]; female, 4 mg/kg, at either time point (8, 24 hours)): no increase in plasma AST was observed
Plasma AST (HOZ mice [3]; female, 8 mg/kg, 8 hours): 13425.6 u/L
Plasma AST (HOZ mice [3]; female, 8 mg/kg, 24 hours): 8097.6 u/L
increase in plasma AST (HOZ mice [3]; female, 8 mg/kg, after 8 hours): 237 fold
increase in plasma AST (HOZ mice [3]; [4]): 97 fold
Plasma AST (HOZ mice [3]; male, 1 mg/kg, 8 hours): 100.2 u/L
Plasma AST (HOZ mice [3]; male, 1 mg/kg, 24 hours): 63.1 u/L
Plasma AST (HOZ mice [3]; male, 2 mg/kg, 8 hours): 66.4 u/L
Plasma AST (HOZ mice [3]; male, 2 mg/kg, 24 hours): 56.4 u/L
Plasma AST (HOZ mice [3]; male, 4 mg/kg, 8 hours): 132.3 u/L
Plasma AST (HOZ mice [3]; male, 4 mg/kg, 24 hours): 123.0 u/L
Plasma AST (HOZ mice [3]; male, 8 mg/kg, 8 hours): 92.4 u/L
Plasma AST (HOZ mice [3]; male, 8 mg/kg, 24 hours): 353.8 u/L
increase in AST (HOZ mice [3]; male, 8 mg/kg, 24 hours after treatment): 3.8 fold
HO-1 mRNA levels in kidney and liver compared to controls (HO-1 mRNA; 10 mg/kg, after 24 hours): very substantially elevated
HO-1 mRNA in liver versus dose (HO-1 mRNA; both sexes, 0-8 mg/kg, 8 hours): clear dose-response relationship
HO-1 mRNA levels in liver (HO-1 mRNA; highest doses, 24 hours): slightly elevated
